According to the PolyMetriX glass transition set:
± gives the standard deviation of the reports.

Compound *CC(=O)NCCCCCCNC(=O)COC(=O)CCC(=O)O* (repeat unit) has a glass transition temperature of 30.00 °C. Work on *C(=O)c1ccc2c(c1)C(=O)N(c1ccc(C(c3ccccc3)(c3ccc(N4C(=O)c5ccc(*)cc5C4=O)cc3)C(F)(F)F)cc1)C2=O (repeat unit) yielded a glass transition temperature of 311.00 °C. With *c1ccc(Oc2ccc(-c3ccc(Oc4ccc(N5C(=O)c6ccc(Oc7ccc(-c8ccc(Oc9ccc%10c(c9)C(=O)N(*)C%10=O)cc8)cc7)cc6C5=O)cc4)cc3)cc2)cc1 (repeat unit) the glass transition temperature was 220.00 °C. Work on *CC(*)CCCCC (repeat unit) [Poly(pentylethylene)] yielded a glass transition temperature of -44.33 ± 1.7 °C. Compound *O[Si](*)(C)CCCCCCOc1ccc(C(=O)Oc2ccc(C(=O)OCC(C)CC)cc2)cc1 (repeat unit) has a glass transition temperature of -9.00 °C. Work on *CC(=O)NCCCCCCNC(=O)COC(=O)CCCCC(=O)O* (repeat unit) yielded a glass transition temperature of 19.00 °C. Compound *OC(COC(=O)c1ccc(-c2ccc(C(*)=O)cc2)cc1)COc1ccc(/N=N/c2ccc(C#N)cc2)cc1 (repeat unit) has a glass transition temperature of 141.00 °C. *CC(*)c1cc(Br)ccc1OC (repeat unit) showed a glass transition temperature of 86.00 °C. With *Oc1ccc(CC(NC(=O)CCc2ccc(OC(=O)COCC(*)=O)cc2)C(=O)OC)cc1 (repeat unit) the glass transition temperature was 82.00 °C. In the case of *Oc1ccc(OC(=O)c2ccc(OC(=O)c3ccc(C(=O)Oc4ccc(C(*)=O)cc4)cc3)cc2)cc1 (repeat unit), the glass transition temperature is reported as 283.00 °C. In the case of *c1ccc2cc(OC(=O)c3ccc(C(=O)Oc4ccc5cc(-c6nc7ccccc7nc6*)ccc5c4)cc3)ccc2c1 (repeat unit), the glass transition temperature is reported as 136.00 °C. For *CCCCCCCN1C(=O)c2ccc(C(c3ccc4c(c3)C(=O)N(*)C4=O)(C(F)(F)F)C(F)(F)F)cc2C1=O (repeat unit), the glass transition temperature was 165.00 °C. *C1C(*)C2CC1C(C(=O)OCC1CC3CCC1C3)C2C(=O)OCC1CC2CCC1C2 (repeat unit) gave a glass transition temperature of 320.00 °C. Compound *CC(*)(C)C(=O)OCCCCCCOc1ccc(/N=N/c2ccc(OC)cc2)cc1 (repeat unit) has a glass transition temperature of 91.00 °C. Compound *C(=O)c1ccc2c(c1)C(=O)N(c1ccc(Oc3c(C)cc(Cc4cc(C)c(Oc5ccc(N6C(=O)c7ccc(*)cc7C6=O)cc5)c(C)c4)cc3C)cc1)C2=O (repeat unit) has a glass transition temperature of 303.00 °C. *OS(=O)(=O)c1cccc(C(=O)c2cccc(S(=O)(=O)Oc3ccc(C(C)(C)c4ccc(*)cc4)cc3)c2)c1 (repeat unit) showed a glass transition temperature of 122.00 °C. *c1cc(SCCCCCCCCCCCC)c(*)s1 (repeat unit) gave a glass transition temperature of 33.00 °C. Work on *Nc1cccc2c(NC(=O)c3ccc(C(*)=O)cc3)cccc12 (repeat unit) yielded a glass transition temperature of 305.00 °C. Work on *CC(*)N1CCCCCC1=O (repeat unit) yielded a glass transition temperature of 174.60 °C. Compound *CC(*)(C)C(=O)OCCCCCCOc1ccc(OC(=O)c2ccc(OCCCC)cc2)cc1 (repeat unit) has a glass transition temperature of 36.00 °C. Work on *Oc1ccc(C2(c3ccc(OC(*)=S)cc3)CCC(C)CC2)cc1 (repeat unit) yielded a glass transition temperature of 168.00 °C. In the case of *CC(O)CN(CC(O)COc1ccc(C(C)(C)c2ccc(O*)cc2)cc1)c1ccc(/C=C/c2ccc([N+](=O)[O-])cc2)cc1 (repeat unit), the glass transition temperature is reported as 320.00 °C. Compound *c1ccc(Oc2ccc(Oc3ccc(N4C(=O)c5ccc(Oc6ccc(-c7ccc(Oc8ccc9c(c8)C(=O)N(*)C9=O)cc7)cc6)cc5C4=O)cc3)cc2)cc1 (repeat unit) has a glass transition temperature of 222.00 °C. With *c1ccc(OCCCCCCCCCCCOC(=O)c2cccc(C(=O)OCCCCCCCCCCCOc3cccc(-c4nnc(*)s4)c3)c2)cc1 (repeat unit) the glass transition temperature was 39.00 °C. Work on *C1CCCC(S(*)(=O)=O)C1 (repeat unit) yielded a glass transition temperature of 108.00 °C. For *c1ccc(NC2CC(=O)N(c3ccc(-c4sc(-c5ccc(N6C(=O)CC(Nc7ccc(-c8nc(C#N)c(C#N)nc8*)cc7)C6=O)cc5)c(-c5ccccc5)c4-c4ccccc4)cc3)C2=O)cc1 (repeat unit), the glass transition temperature was 231.00 °C. *c1ccc(Oc2ccc(N3C(=O)C(C)C(SCCOCCSC4C(=O)N(c5ccc(Oc6ccc(N7C(=O)CC(C)(SCCOCCSC8(C)CC(=O)N(*)C8=O)C7=O)cc6)cc5)C(=O)C4C)C3=O)cc2)cc1 (repeat unit) gave a glass transition temperature of 145.00 °C. Work on *Oc1ccc(C(=O)c2ccc(OC(=O)OC3C(C)(C)C(OC(*)=O)C3(C)C)cc2)cc1 (repeat unit) yielded a glass transition temperature of 125.00 °C. In the case of *CCCCCCCCCCOc1ccc(/C=C/c2ccc(OCCCCCCCCCCOP(=O)(O*)OCCCCCCCCCCOc3ccc(/N=N/c4ccc(OC)cc4)cc3)cc2)cc1 (repeat unit), the glass transition temperature is reported as 58.00 °C. *CCCCOc1ccc(C(=O)Nc2cccc(P(=O)(c3ccccc3)c3cccc(NC(=O)c4ccc(O*)cc4)c3)c2)cc1 (repeat unit) gave a glass transition temperature of 191.00 °C. In the case of *c1ccc(Oc2cc3ccccc3cc2Oc2ccc(N3C(=O)c4ccc(-c5ccc6c(c5)C(=O)N(*)C6=O)cc4C3=O)cc2)cc1 (repeat unit), the glass transition temperature is reported as 253.50 °C. Compound *Cc1ccc(CSSSS*)cc1 (repeat unit) has a glass transition temperature of 3.00 °C. *ON(C(F)(F)F)C(F)(F)/C(F)=C(\F)C(*)(F)F (repeat unit) showed a glass transition temperature of -7.00 °C. In the case of *CCCCCCCCCCNC(=O)CCCCCCCCCCCCCCCCC(=O)N* (repeat unit), the glass transition temperature is reported as 46.00 °C. For *OC(C)(CC(*)=O)C(F)(F)F (repeat unit), the glass transition temperature was 27.00 °C. With *c1ccc(Oc2ccc(C(C)(c3ccccc3)c3ccc(Oc4ccc(-c5nc(-c6ccccn6)nnc5*)cc4)cc3)cc2)cc1 (repeat unit) the glass transition temperature was 232.00 °C. Compound *CCCCCC(=O)Oc1ccc(C(C)(C)c2ccc(C(C)(C)c3ccc(OC(=O)c4ccc5c(c4)C(=O)N(*)C5=O)cc3)cc2)cc1 (repeat unit) has a glass transition temperature of 104.00 °C. Work on *CC(*)C(=O)N1CC[NH+](CC)CC1 (repeat unit) yielded a glass transition temperature of 72.50 °C. In the case of */C=C/C1CC(*)C2C3CCC(C3)C12 (repeat unit), the glass transition temperature is reported as 207.40 °C. Compound *CCCCCCCCCCCCCCCCCCNC(=O)Cc1ccc(CC(=O)N*)cc1 (repeat unit) has a glass transition temperature of 78.00 °C. *c1ccc(-c2ccc(-c3cc(-c4ccccc4)c4cc(C5(c6ccc7nc(*)cc(-c8ccccc8)c7c6)c6ccccc6-c6ccccc65)ccc4n3)cc2)cc1 (repeat unit) gave a glass transition temperature of 380.00 °C. In the case of *Oc1ccc(C(C)(C)c2ccc(OC(=O)c3ccc([Si](c4ccccc4)(c4ccccc4)c4ccc(C(*)=O)cc4)cc3)cc2)cc1 (repeat unit), the glass transition temperature is reported as 295.00 °C. *CC(*)(C)C(=O)OC(C)C (repeat unit) [Poly(isopropyl methacrylate)] showed a glass transition temperature of 83.92 ± 1.5 °C. *c1ccc(NC(=O)c2ccc(OCCOCCOc3ccc(C(=O)Nc4ccc5[nH]c(*)nc5c4)cc3)cc2)cc1 (repeat unit) gave a glass transition temperature of 175.00 °C. *Oc1ccc(CC(NC(=O)CCc2ccc(OC(=O)CCCCCCC(*)=O)cc2)C(=O)OC(C)C)cc1 (repeat unit) showed a glass transition temperature of 46.00 °C. For *CCCCCCOC(=O)OCCCCCCCCCCOC(=O)OCCCCCCOc1ccc(Oc2ccc(O*)cc2)cc1 (repeat unit), the glass transition temperature was -22.00 °C. Compound *CCN(*)C(=O)c1c(F)c(F)c(F)c(F)c1F (repeat unit) has a glass transition temperature of 136.00 °C.
